Assay results taken from publication PMC10675174, “Design, Synthesis, and Repurposing of Rosmarinic Acid-β-Amino-α-Ketoamide Hybrids as Antileishmanial Agents” (Pharmaceuticals, 2023).

Columns and labels:
[1] = test system: L. donovani promastigotes; assay: In vitro L. donovani promastigotes growth inhibition (resazurin-based assay); assay type: cell-based; conditions: Leishmania donovani, 72 h; for inhibition at 25 µM / inhibition at 50 µM: growth of L. donovani promastigotes, incubation 3 days, relative to control; for IC50: incubation for 3 days, from dose-response curves, read-out: IC50 against L. donovani promastigotes
Protocol: Using an in vitro promastigotes-based model, the activity of the synthesized target compounds 2a–i was assessed against the promastigote stage of L. donovani. A double-concentration assay was performed for each compound at 50 and 25 µM concentrations adopting a resazurin-based assay system. Erufosine was used as a positive reference standard drug.
Among the evaluated compounds, seven derivatives maintained a high inhibitory activity at 25 and 50 μM concentrations which was similar to erufosine. Therefore, they were advanced to assessment of potency to evaluate their quality as antileishmanial hit compounds. […] Erufosine was used as positive controls for comparison.
(§1) 2.1. In vitro L. donovani promastigotes-based evaluation model
(§2) 2.1.1. Cell culture of parasite
(§3) L. donovani MHOM/SD/62/1S-CL2D parasites (Department of PIV, Institut Pasteur, Paris,
(§4) France) were cultured as promastigotes at 28 °C in M199 medium (Sigma-Aldrich, St. Louis, MO,
(§5) USA) with 40 mM HEPES, 0.1 mM adenine, 0.0001% biotin, and 4.62 mM NaHCO3
(§6) supplemented with 10% foetal bovine serum (FBS, Gibco, Carlsbad, CA, USA), […]
(§7) penicillin (Gibco), and […] streptomycin (Gibco). Parasites were sub-cultured every 3 or
(§8) 4 days and maintained for 10 passages.
(§9) 2.1.2 Assay of parasite growth inhibition
(§10) The values of growth inhibition of L. donovani promastigotes were determined based on the
(§11) metabolism of resazurin to resorufin by aerobic respiration of metabolically active cells using 384-
(§12) well plates that were seeded with L. donovani promastigotes (5x10^4 cells per well) and incubated
(§13) with tested compounds for 3 days followed by addition of Resazurin sodium salt (200 µM; R7017;
(§14) Sigma-Aldrich, St. Louis, MO, USA) and further incubation for 5 h then the cells were fixed (4%
paraformaldehyde). The plates were analysed using a Victor3TM plate reader (PerkinElmer, Inc.,
Waltham, MA, USA) at 590 nm (emission) and 530 nm (excitation). Miltefosine and erufosine
were used as the reference standards. All measured and calculated values are the averages of
triplicates. The dose-response curves were generated by GraphPad Prism 6 software using a
sigmoidal dose-response equation with a variable hill slope option. […]

[2] = In vitro safety evaluation: cytotoxicity on THP-1 cells; assay type: cell-based; conditions: human, PMA-treated THP-1 monocytic cells, THP-1 human monocytic cell line
Protocol: As for the considerable toxicities of current antileishmanial therapies, a promising drug candidate should be selective eliciting no potential cytotoxicity towards human cells. […] The newly introduced hit compound needs to be safe and non-toxic to human cells. A comparison with the standard drug erufosine was performed. […] In light of these findings, it might be inferred that both cinnamoyl ketoamide hybrids 2g and 2h could be selective antileishmanial hit compounds for future development.
as §1, §2, §3, §4, §5, §6, §7, §8, §9, §10, §11, §12, §13, §14
paraformaldehyde). The plates were analysed using a Victor3TM plate reader (PerkinElmer, Inc., […]
were used as the reference standards. All measured and calculated values are the averages of […]
The images were acquired based on reading using an Operetta® automated microscope
(PerkinElmer, Inc., Waltham, MA 02451, USA). They were further analysed using ColumbusTM
(PerkinElmer, Inc. Waltham, MA, USA) software to quantify parasite numbers, and host cell
numbers. In brief, large-sized nucleus of host cells was first detected using DAPI signal and the […]

[3] = test system: promastigotes of L. amazonensis; conditions: read-out: IC50 against promastigotes of L. amazonensis; cited from earlier work
[4] = test system: promastigotes of L. infantum; conditions: cited from earlier work

| IC50 [1] [µM] | Structure (SMILES) | inhibition at 25 µM [1] [%] | inhibition at 50 µM [1] [%] | CC50 at 72 h [2] [µM] | IC50 [3] [µM] | IC50 ([4]; read-out: IC50 against promastigotes of L. infantum) [µM] | IC50 against promastigotes of L. infantum [4] [µg/mL] |
| --- | --- | --- | --- | --- | --- | --- | --- |
| 26.9 ± 1.4 | CCCCC(=Cc1ccc(O)c(O)c1)C(=O)NC(Cc1ccccc1)C(=O)C(=O)NCc1ccccc1 (centres unmarked) [Compound 2f] | 104 ± 0.4 | 100 ± 0.3 |  |  |  |  |
| 8.8 ± 0.4 | CCCCC(=Cc1ccc(O)c(OC)c1)C(=O)NC(Cc1ccccc1)C(=O)C(=O)NCCc1ccc(OC)cc1 (centres unmarked) [Compound 2h] | 103 ± 0.2 | 100 ± 0.3 | > 100 |  |  |  |
| 37.6 ± 2.1 | CCCC(=Cc1ccc(O)c(O)c1)C(=O)NC(Cc1ccccc1)C(=O)C(=O)NCCc1ccc(OC)cc1 (centres unmarked) [Compound 2e] | 104 ± 0.2 | 104 ± 0.1 |  |  |  |  |
| 9.5 ± 0.6 | CCCCC(=Cc1ccc(O)c(O)c1)C(=O)NC(Cc1ccccc1)C(=O)C(=O)NCCc1ccc(OC)cc1 (centres unmarked) [Compound 2g] | 107 ± 0.1 | 103 ± 0.1 | > 100 |  |  |  |
| 87.3 ± 1.2 | CCC(=Cc1ccc(O)c(O)c1)C(=O)NC(Cc1ccccc1)C(=O)C(=O)NCc1ccccc1 (centres unmarked) [Compound 2c] | 104 ± 0.3 | 101 ± 0.2 |  |  |  |  |
| 45.2 ± 0.9 | CCCC(=Cc1ccc(O)c(O)c1)C(=O)NC(Cc1ccccc1)C(=O)C(=O)NCc1ccccc1 (centres unmarked) [Compound 2d] | 107 ± 0.4 | 102 ± 0.1 |  |  |  |  |
| > 100 | O=C(C=Cc1ccc(O)c(O)c1)NC(Cc1ccccc1)C(=O)C(=O)NCc1ccccc1 (centres unmarked) [Compound 2a] | 97.8 ± 1 | 103 ± 0.4 |  |  |  |  |

Further lines, the compound ahead of its results:

| Structure (SMILES) | IC50 [1] [µM] | inhibition at 25 µM [1] [%] | inhibition at 50 µM [1] [%] | CC50 at 72 h [2] [µM] | IC50 [3] [µM] | IC50 ([4]; read-out: IC50 against promastigotes of L. infantum) [µM] | IC50 against promastigotes of L. infantum [4] [µg/mL] |
| --- | --- | --- | --- | --- | --- | --- | --- |
| CCCCCCCC/C=C\CCCCCCCCCCCCOP(=O)([O-])OCC[N+](C)(C)C [Erufosine, reference compound] | 9.8 ± 0.7 | 100 ± 1 | 107.6 ± 0.3 | 19.4 |  |  |  |
| O=C(/C=C/c1ccc(O)c(O)c1)O[C@H](Cc1ccc(O)c(O)c1)C(=O)O [Rosmarinic acid] |  |  |  |  | 61 | 57.3 |  |
| CCCCC(=Cc1ccc(OC)c(OC)c1)C(=O)NC(Cc1ccccc1)C(=O)C(=O)NCCc1ccc(OC)cc1 (centres unmarked) [Compound 2i] |  | 79.8 ± 1.8 | 94.2 ± 1.2 |  |  |  |  |
| O=C(/C=C/c1ccc(O)c(O)c1)OCCc1ccccc1 [CAPE, caffeic acid phenethyl ester] |  |  |  |  |  |  | 51.0 |
| COc1ccc(CCNC(=O)C(=O)C(Cc2ccccc2)NC(=O)C=Cc2ccc(O)c(O)c2)cc1 (centres unmarked) [Compound 2b] |  | 44 ± 1.2 | 72.83 ± 0.4 |  |  |  |  |
| O=C(/C=C/c1ccc(O)c(O)c1)O[C@@H]1C[C@](O)(C(=O)O)C[C@@H](O)[C@H]1O [chlorogenic, chlorogenic acid] |  |  |  |  | > 500 |  |  |
